Values quoted from earlier work in patent US20160287532A1 (SignPath Pharma Inc., priority 2015, published 2016).

Columns and labels:
MMP-1 [1] = settings: IVD cells pre-treated with IL-1β
IL-6 [2] = settings: IVD cells pre-treated with IL-1β
MMP-13 [3] = settings: IVD cells pre-treated with IL-1β
MMP-3 [4] = settings: IVD cells pre-treated with IL-1β
IL-8 [5] = settings: IVD cells pre-treated with IL-1β
MMP-1 [6] = settings: treated IVD samples
MMP-3 [7] = settings: after treatment; decreased from 0.9 ng/mg tissue
MMP-3 [8] = settings: 10 μM EGCG, IL-1β stimulated
MMP-1 [9] = settings: 10 μM EGCG, IL-1β stimulated
MMP-13 [10] = settings: 10 μM EGCG, IL-1β stimulated
IL-6 [11] = settings: 10 μM EGCG, IL-1β stimulated
IL-8 [12] = settings: 10 μM EGCG, IL-1β stimulated
COX-2 = settings: 10 μM EGCG, IL-1β stimulated

Oc1ccc(C=Cc2cc(O)cc(O)c2)cc1 [Resveratrol, resveratrol]
reduced: levels of MMP-1 (MMP-1 [1]) | levels of IL-6 (IL-6 [2]) | levels of MMP-13 (MMP-13 [3]) | levels of MMP-3 (MMP-3 [4]) | levels of IL-8 (IL-8 [5])

IL-1Ra: recombinant interleukin-1 receptor antagonist
0.35 ng/mg tissue: concentration of total MMP-3 activity (MMP-3 [7])
no effect: effect on MMP-1 concentration (MMP-1 [6])

epigallocatechin 3-gallate [EGCG]
inhibited: expression of MMP-3 (MMP-3 [8]) | expression of MMP-1 (MMP-1 [9]) | expression of MMP-13 (MMP-13 [10]) | expression of IL-6 (IL-6 [11]) | expression of IL-8 (IL-8 [12]) | expression of COX-2 (COX-2)
